Laboratory results as given in patent US9260382B2, “Methods of reducing virulence in bacteria” (priority 2010, dated 2016).
“And” between values parts separate entries of the source, which are not always exact repeats. Equal entries are not always repeated.

How the values were obtained:
[1] = system: Dickeya dadantii 3937 (Ech3937); experiment: Bacterial growth in MM supplemented with compound; type: cell-based; conditions: compound added into the MM
Source text: (§1) Phenolic compounds constitute an important class of organic substances produced by plants. The phenolic compound SA is a signaling molecule that plays a role in host defenses. OCA and TCA are the biosynthetic precursors of SA and are also reported to induce the expression of defense-related genes in plants. OCA, TCA, and SA were examined to elucidate their effects on the expression of T3SS genes. The expression of the T3SS gene hrpN was examined in MM and MM supplemented with OCA, TCA, and SA, at concentrations of 0.05, 0.1, and 0.2 mM, respectively. FIGS. 2A and 2B show the promoter activities of hrpN in Dickeya dadantii 3937 (Ech3937) grown in MM and MM supplemented with 0.05, 0.1, and 0.2 mM OCA, TCA, and SA at 12 h (FIG. 2A) and 24 h (FIG. 2B) post-inoculation. GFP intensity was determined on gated populations of bacterial cells by flow cytometry and analyzed with the Cell Quest software (BD Biosciences, San Jose, Calif.). The growth of Ech3937 in MM supplemented with different concentrations of OCA, TCA and SA was recorded. Compared with MM alone, the average GFP fluorescence intensity of bacterial cells of Ech3937 (phrpN) was increased approximately 4-fold when 0.05 mM of OCA and TCA were added to the medium (FIGS. 2A, 2B).
The expression of the T3SS gene hrpA was further examined in MM and MM supplemented with PCA at concentrations of 0.001, 0.005, 0.01, 0.05 and 0.1 mM respectively. FIGS. 16A and 16B show the promoter activities of hrpA in Dickeya dadantii 3937 (Ech3937) grown in minimum medium (MM) and MM supplemented with different amount of p-coumaric acid (PCA) at 12 h (FIG. 16A) and 24 h (FIG. 16B) post-inoculation. GFP intensity was determined on gated populations of bacterial cells by flow cytometry and analyzed with the Cell Quest software (BD Biosciences, San Jose, Calif.). The growth of Ech3937 in MM supplemented with different concentrations of PCA was recorded. Compared with MM alone, the average GFP fluorescence intensity of bacterial cells of Ech3937 (phrpA) was reduced more than 4-fold when 0.05 and 0.1 mM of PCA were added to the medium (FIGS. 16A, 16B).

hrpN promoter (T3SS) = experiment: GFP reporter plasmid phrpN, flow cytometry of hrpN promoter activity; type: cell-based, Dickeya dadantii 3937; conditions: for hrpN expression in Ech3937 and hrpX, hrpY, hrpS mutants, in words: 0.1 mM, 12 h (FIG. 5); for GFP Mean Fluorescence Intensity, hrpN promoter: MM + 0.1 mM compound; for mean fluorescence intensity of GFP, hrpN promoter: 3937 (phrpN), MM + 100 μM
Experimental: FACS analysis of promoter activity of dspE, hrpA, hrpL, hrpN, and hrpS was carried out as described (Peng et al., 2006). Briefly, the wild-type Ech3937 and the mutant strains carrying the promoter reporter plasmid were grown on LB broth at 28° C. overnight and transferred to appropriate media. For FACS analysis, samples were collected by centrifugation, washed with 1× phosphate buffer saline (PBS) at 13,000 rpm for 1 min, and re-suspended in 1×PBS to ca 10^6 CFU/ml prior to being run in a FACS Calibur flow cytometer (BD Biosciences, CA). Three replicates were performed for each treatment.
as §1

hrpA mRNA = experiment: qRT-PCR relative mRNA level of hrpA; type: cell-based, Dickeya dadantii 3937; conditions: 0.1 mM in MM
Experimental: (§2) Bacterial strains were grown in MM. Total RNA from the bacterial cells was isolated by using the TRI reagent method (Sigma, Mo.) and treated with Turbo DNA-free DNase kits (Ambion, Tex.) as described (Peng et al., 2006). An iScript cDNA Synthesis Kit (Bio-Rad, CA) was used to synthesize cDNA from 0.5 μg of treated total RNA. The Real Master Mix (Eppendorf, Westbury, N.Y.) was used for qRT-PCR reaction to quantify the cDNA level of target genes in different samples. The rplU was used as the endogenous control for data analysis. qRT-PCR data were analyzed using Relative Expression Software Tool as described (Pfaffl, M. W., Horgan, G. W., and Dempfle, L. (2002) Relative expression software tool (REST) for group-wise comparison and statistical analysis of relative expression results in real-time PCR. Nucleic Acids Res 30:e36.).

dspE mRNA = experiment: qRT-PCR relative mRNA level of dspE; type: cell-based, Dickeya dadantii 3937; conditions: 0.1 mM in MM
Experimental: as §2

exoS promoter (T3SS) = experiment: exoS promoter-gfp reporter pATexoS, flow cytometry; type: cell-based, P. aeruginosa PA01; conditions: for Actual readings of flow cytometry (exoS expression): 6 h, LB with 200 mM NaCl, 10 mM NTA; for Fraction of untreated control (exoS expression): structure-activity table, concentration not given
Experimental: To identify T3SS inhibitors of PA01, a promoter-probe vector pPROBE-AT containing the promoterless green fluorescent protein (gfp) gene was used to construct an exoS promoter-gfp plasmid reporter, pATexoS. PA01 containing pATexoS was cultured in T3SS-inducing medium containing dimethyl sulfoxide (DMSO; solvent of chemical compounds), or supplemented with 250 μM of each compound, and promoter activity was assessed at 6 h by measuring GFP intensity using flow cytometry. 101 compounds (58 synthesized and 43 commercially available) were screened. Compounds 027, 032, 101, and 149 repressed exoS expression at the final concentration of 250 μM by at least one standard deviation below the sample average (Z score≦−1) (FIG. 37 A-E). Z score (or standard score) indicates how many standard deviations an observation or datum is above or below the mean [z=(x−μ)/σ, where x is a raw score to be standardized, μ is the mean of the population, and σ is the standard deviation of the population].
To determine the effective concentration of compounds, the dose-dependent effect of potential inhibitors on exoS expression and bacterial growth were tested. P. aeruginosa cells carrying pATexoS were pre-cultured in LB supplemented with 200 mM NaCl and transferred to fresh LB with 200 mM NaCl, 10 mM NTA, and various concentrations of compounds (20, 50, 100, and 250 μM) or DMSO for 6 h. […] At 50 μM dosage, both 027 and 101 inhibited exoS expression at similar levels, and this inhibitory effect increased as compound concentration increased (FIG. 38A and Table 17). […] These inhibitions/inductions of exoS expression are caused by the shifting bacterial population between low-state expression cells and high-state expression cells (FIG. 40).

[2] = hrpL mutant WPP96 (phrpN), 12 h

O=C(O)/C=C/c1ccccc1 [Compound 001, trans-cinnamic acid]
effect on bacterial growth of Ech3937 in MM, in words [1]: No reduction of bacterial growth | increase of average GFP fluorescence intensity of Ech3937 (phrpN) compared with MM alone (hrpN promoter (T3SS); 0.05 mM compound, 12 h and 24 h (FIGS. 2A, 2B)): approximately 4 fold | hrpN expression in Ech3937 and hrpX, hrpY, hrpS mutants, in words (hrpN promoter (T3SS)): induced the expression of hrpN in Ech3937, but not in hrpX, hrpY, and hrpS mutants | GFP Mean Fluorescence Intensity, hrpN promoter (hrpN promoter (T3SS); Ech3937 (phrpN), 12 h): 103 ± 1 | GFP Intensity of Ech3937 (phrpN) (hrpN promoter (T3SS); MM + 0.2 μM compound, 12 h): 65.1 ± 6.8 | GFP Intensity of Ech3937 (phrpN) (hrpN promoter (T3SS); MM + 0.2 μM compound, 24 h): 163 ± 25 | GFP Intensity of Ech3937 (phrpN) (hrpN promoter (T3SS); MM + 0.5 μM compound, 12 h): 73.4 ± 4.2 | GFP Intensity of Ech3937 (phrpN) (hrpN promoter (T3SS); MM + 0.5 μM compound, 24 h): 158 ± 20 | GFP Intensity of Ech3937 (phrpN) (hrpN promoter (T3SS); MM + 5 μM compound, 12 h): 134 ± 5.6 | GFP Intensity of Ech3937 (phrpN) (hrpN promoter (T3SS); MM + 5 μM compound, 24 h): 266 ± 14 | GFP Intensity of Ech3937 (phrpN) (hrpN promoter (T3SS); MM + 10 μM compound, 12 h): 147 ± 18 | GFP Intensity of Ech3937 (phrpN) (hrpN promoter (T3SS); MM + 10 μM compound, 24 h): 284 ± 12 | GFP Mean Fluorescence Intensity, hrpN promoter (hrpN promoter (T3SS); [2]): 3.3 ± 0

O=C(O)/C=C/c1ccccc1O [Compound 006, Ortho-coumaric acid]
effect on bacterial growth of Ech3937 in MM, in words [1]: No reduction of bacterial growth | hrpA mRNA compared with MM alone, in words (hrpA mRNA): significantly higher amount | hrpN expression in Ech3937 and hrpX, hrpY, hrpS mutants, in words (hrpN promoter (T3SS)): induced the expression of hrpN in Ech3937, but not in hrpX, hrpY, and hrpS mutants | GFP Mean Fluorescence Intensity, hrpN promoter (hrpN promoter (T3SS); Ech3937 (phrpN), 6 h): 31 ± 3 | GFP Mean Fluorescence Intensity, hrpN promoter (hrpN promoter (T3SS); Ech3937 (phrpN), 12 h, listed as OCA): 94 ± 3 and 91 ± 8 | GFP Mean Fluorescence Intensity, hrpN promoter (hrpN promoter (T3SS); Ech3937 (phrpN), 24 h): 78 ± 8 | GFP Mean Fluorescence Intensity, hrpN promoter (hrpN promoter (T3SS); [2]): 3.3 ± 0.1 | GFP Mean Fluorescence Intensity, hrpN promoter (hrpN promoter (T3SS); iaaM mutant Ech138 (phrpN), 6 h): 9.1 ± 1.6 | GFP Mean Fluorescence Intensity, hrpN promoter (hrpN promoter (T3SS); iaaM mutant Ech138 (phrpN), 12 h): 33 ± 5 | GFP Mean Fluorescence Intensity, hrpN promoter (hrpN promoter (T3SS); iaaM mutant Ech138 (phrpN), 24 h): 39 ± 5 | dspE mRNA compared with MM alone, in words (dspE mRNA): significantly higher amount

O=C(/C=C/c1ccc(O)cc1)NO [Compound 103, trans-4-Hydroxycinnamohydroxamic acid]
Actual readings of flow cytometry (exoS expression) (exoS promoter (T3SS); 20 uM): 179.07 ± 2.98 | Actual readings of flow cytometry (exoS expression) (exoS promoter (T3SS); 50 uM): 237.31 ± 4.94 | Actual readings of flow cytometry (exoS expression) (exoS promoter (T3SS); 100 uM): 279.16 ± 2.72 | Actual readings of flow cytometry (exoS expression) (exoS promoter (T3SS); 250 uM): 328.30 ± 3.24 | Fraction of untreated control (exoS expression) (exoS promoter (T3SS)): 2.04 ± 0.13 | mean fluorescence intensity of GFP, hrpN promoter (hrpN promoter (T3SS); 12 h): 5.8 ± 0.7 | mean fluorescence intensity of GFP, hrpN promoter (hrpN promoter (T3SS); 24 h): 5.4 ± 0.3

O=C(O)/C=C/c1ccc(O)cc1 [Compound 004, para-coumaric acid]
effect on bacterial growth of Ech3937 in MM, in words [1]: Inhibition of bacterial growth was not observed | Actual readings of flow cytometry (exoS expression) (exoS promoter (T3SS); 20 uM): 119.08 ± 1.82 | Actual readings of flow cytometry (exoS expression) (exoS promoter (T3SS); 50 uM): 127.05 ± 4.43 | Actual readings of flow cytometry (exoS expression) (exoS promoter (T3SS); 100 uM): 118.16 ± 2.73 | Actual readings of flow cytometry (exoS expression) (exoS promoter (T3SS); 250 uM): 117.74 ± 5.09 | effect on exoS promoter activity, in words (exoS promoter (T3SS); screening for T3SS inhibitors): little or no effect on exoS promoter activity | Fraction of untreated control (exoS expression) (exoS promoter (T3SS)): 0.94 ± 0.05 | hrpA mRNA compared with MM alone, in words (hrpA mRNA): significantly lower amount of mRNA | GFP Mean Fluorescence Intensity, hrpN promoter (hrpN promoter (T3SS); Ech3937 (phrpN), 12 h, listed as PCA): 6.8 ± 0.8 and 4.3 ± 0.1 | GFP Mean Fluorescence Intensity, hrpN promoter (hrpN promoter (T3SS); Ech3937 (phrpN), 24 h, listed as PCA): 8.8 ± 2.1 | GFP Mean Fluorescence Intensity, hrpN promoter (hrpN promoter (T3SS); [2]): 3.0 ± 0.0 | GFP Mean Fluorescence Intensity, hrpN promoter (hrpN promoter (T3SS); hrpL mutant WPP96 (phrpN), 24 h): 4.3 ± 0.1 | GFP Mean Fluorescence Intensity, hrpN promoter (hrpN promoter (T3SS); hrpS mutant WPP90 (phrpN), 12 h): 3.5 ± 0.1 | GFP Mean Fluorescence Intensity, hrpN promoter (hrpN promoter (T3SS); hrpS mutant WPP90 (phrpN), 24 h): 5.1 ± 0.1 | GFP Mean Fluorescence Intensity, hrpN promoter (hrpN promoter (T3SS); hrpX mutant WPP67 (phrpN), 12 h): 3.5 ± 0.2 | GFP Mean Fluorescence Intensity, hrpN promoter (hrpN promoter (T3SS); hrpX mutant WPP67 (phrpN), 24 h): 6.3 ± 0.7 | GFP Mean Fluorescence Intensity, hrpN promoter (hrpN promoter (T3SS); hrpY mutant WPP92 (phrpN), 12 h): 3.6 ± 0.1 | GFP Mean Fluorescence Intensity, hrpN promoter (hrpN promoter (T3SS); hrpY mutant WPP92 (phrpN), 24 h): 5.5 ± 0.3 | dspE mRNA compared with MM alone, in words (dspE mRNA): significantly lower amount of mRNA
